The test system of data set [1] is isolated pDC. Put plainly: IFN-alpha production upon isolated pDC stimulation. The note with it: 0.5 μM ORN complexed to 10 μg/ml DOTAP, 16 h. In kind it is cell-based, human. As to the method:
FIG. 2 is a set of bar graphs depicting ORN induced cytokine production upon isolated pDC (FIG. 2a), monocytes (FIG. 2b) and mDC (FIG. 2c) stimulation. Cells were stimulated with 0.5 μM ORN complexed to 10 μg/ml DOTAP, 0.5 μM CpG ODN or DOTAP or media alone and IFN-alpha (FIG. 2a), TNF-alpha […] and IL-12p40 (FIG. 2c) were measured.
A similar assay testing different ORN sequences was performed using isolated pDC, monocytes and mDC stimulation. Cells were stimulated with 0.5 μM ORN complexed to 10 μg/ml DOTAP, 0.5 μM CpG ODN or DOTAP or media alone. After 16 h the supernatants were harvested and IFN-alpha, TNF-alpha and IL-12p40 levels were measured by ELISA.

The subject of data set [2] is Human PBMC. The data set is described as follows: Cytokine production upon human PBMC stimulation (ORN complexed to DOTAP, 16 h, ELISA). The note with it: for IFN-alpha / TNF-alpha: human PBMC stimulated for 16 h, supernatant ELISA; for EC50 / IFN-alpha max activity / TNF-alpha max activity: ORN complexed to DOTAP, 16 h; for EC50: full titration 2 μM to 0.9 nM; for IFN-alpha max activity / TNF-alpha max activity: mean max activity at 0.6 μM, 3-6 blood donors. In kind it is cell-based. More on the design: key to IFN-alpha / TNF-alpha: +: cytokine production; −: no cytokine production. A digest of the protocol: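 Healthy-donor PBMCs were stimulated for 16 h with ORN complexed to DOTAP (25 μg/ml), titrated in 7 steps of 1/3 from 2 μM (to 0.9 nM). IFN-alpha and TNF-alpha in supernatants were measured by ELISA. Mean/max activity at 0.6 μM and EC50 came from 3-6 donors over two experiments.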
In general terms: In an ELISA, binding on a coated surface is turned into a signal by an enzyme label.

In data set [3] the test system is Bovine PBMC. The data set is described as follows: Cytokine production by bovine PBMC (48 hours, ELISA). In kind it is cell-based. The note with it: 10 μg/ml (H.D.) and 2.5 μg/ml (L.D.). As to the method: FIG. 11 is a set of bar graphs showing differences between TLR8 ORN (SEQ ID NO:13) and TLR7/8 ORN (SEQ ID NO:21). SEQ ID NO:5 ORN was used as a control. Bovine PBMC were incubated with either 10 μg/ml ORN (HD) or 2.5 μg/ml ORN (LD) for 48 hours. Supernatants were collected and analyzed by ELISA. FIGS. 11a-c show the level of IL-12, IFN-γ, and TNF-alpha, respectively.
The assay was repeated with a TLR8 ORN (SEQ ID NO:13), a TLR 7/8 ORN (SEQ ID NO:21) and a control ORN (SEQ ID NO:5) (Table 3) at both a high dose (H.D., 10 μg/ml) and a low dose (L.D., 2.5 μg/ml).

The mark [4] stands for this setting: human PBMC, read-out: IFN-alpha EC50.
Setting [5] is: human PBMC, read-out: TNF-alpha EC50.

Where two headings read alike, the source gives them in different places. Where only a bound is given, the exact number is not on record here.

Take “A*U*A*U*A*U*A*U*A*U*A*U*A*U*A*U*A*U*A*U (AUAUAUAUAUAUAUAUAUAU; chemistry not fully specified) [SEQ ID NO: 12]”: the “IFN-alpha production upon pDC stimulation (in words)” value in data set [1] is “no IFN-alpha cytokine production”. Besides, the “IFN-alpha production upon PBMC stimulation (in words)” value in data set [2] (human PBMC) is recorded as “no IFN-alpha cytokine production”. Further, in data set [2], the IFN-alpha result is “−” and the TNF-alpha result is “+”.

Regarding “C*C*G*U*C*U*G*U*U*G*U*G*U*G*A*C*U*C (CCGUCUGUUGUGUGACUC; listed as RNA, chemistry not fully specified) [SEQ ID NO: 5, reference compound]”, in data set [3], the IFN-γ production entry is given as “stimulated production of IFN-γ”.

Take “C*C*G*A*G*C*C*G*A*U*T*U*T*A*C*C (CCGAGCCGAUTUTACC; Oligoribonucleotide, chemistry of T and the '*' linkage is not given here, further chemistry not given here) [SEQ ID NO: 70]”: the EC50 (commonly the concentration needed to bring the measured effect to its halfway point) in data set [2] (setting [4]) was 132 nM; in data set [2] (setting [5]), 150 nM. This substance also had an IFN-alpha max activity in data set [2] (human PBMC) of 1702 pg/mL. The TNF-alpha max activity in data set [2] (human PBMC) was determined as 44904 pg/mL.

As to “C*C*G*A*G*C*C*G*A*G*C*U*C*A*C*C (CCGAGCCGAGCUCACC; listed as RNA, chemistry not fully specified) [SEQ ID NO: 81]”, the EC50 is 667 nM in data set [2] (setting [4]) and 802 nM in data set [2] (setting [5]). This substance came in with an IFN-alpha max activity in data set [2] (human PBMC) of 842.9 pg/mL. Further, the TNF-alpha max activity in data set [2] (human PBMC) stood at 14519 pg/mL.

“A*A*A*A*U*A*A*A*A*U*A*A*A*A*U*A*A*A*A*U (AAAAUAAAAUAAAAUAAAAU; listed as RNA, chemistry not fully specified) [SEQ ID NO: 18]”: in data set [2], the IFN-alpha result is “−” and the TNF-alpha entry is “+”.

Regarding “C*C*G*A*G*C*C*G*A*A*G*G*U*A*C*C (CCGAGCCGAAGGUACC; listed as RNA, chemistry not fully specified) [SEQ ID NO: 82]”, in data set [2] (setting [4]), the EC50 is greater than 2000 nM. The EC50 in data set [2] (setting [5]) was found to be 219 nM. In data set [2] (human PBMC), this substance registered an IFN-alpha max activity of 204 pg/mL and a TNF-alpha max activity of 12595 pg/mL.
